Our source for the IC50 values is patent US20240246908A1 (ORION CORPORATION, priority 2021, published 2024).

Structures are written as SMILES.

The test system of the assay is YAP-TEAD. The assay is described as follows: TEAD inhibition, Hippo Pathway TEAD Reporter MCF-7 luciferase assay. Type of assay: cell-based. Particulars: Homo sapiens, MCF7, 24 h, Hippo Pathway TEAD Reporter MCF-7 cells, luciferase activity after 24 h; read-out: IC50 of the test compounds on YAP-TEAD inhibition (Group). In a few lines: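 MCF-7 cells carrying a TEAD-responsive firefly luciferase reporter, with nuclear YAP1 driving constitutive expression, were treated the day after plating with compounds (11 concentrations, 4 replicates; 0.1% DMSO control). After 24 h, luciferase was read by ONE-Glo luminescence and IC50 determined.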
As for `COc1ccc(O[C@H]2CC[C@@H](C(F)(F)F)CC2)cc1NC(=O)[C@H]1CCC(=O)N1C` [Compound 209, (R)—N-(2-Methoxy-5-(((cis)-4-(trifluoromethyl)cyclohexyl)oxy)phenyl)-1-methyl-5-oxopyrrolidine-2-carboxamide], the concentration for half-maximal inhibition (IC50) was less than 50 nM.

Take `COc1ccc(O[C@H]2CC[C@@H](C(F)(F)F)CC2)cc1NC(=O)[C@@H]1CCC(=O)N1C` [Compound 210, (S)—N-(2-Methoxy-5-(((cis)-4-(trifluoromethyl)cyclohexyl)oxy)phenyl)-1-methyl-5-oxopyrrolidine-2-carboxamide]: the 50% inhibitory concentration (IC50) is less than 50 nM.

On to `COc1ccc(Oc2ccc(C(F)F)cn2)cc1NC(=O)C1CCC(=O)N1C` (stereo not drawn) [Compound 211, N-(5-((5-(Difluoromethyl)pyridin-2-yl)oxy)-2-methoxyphenyl)-1-methyl-5-oxopyrrolidine-2-carboxamide], for which the IC50 was in the range of 50 to 300 nM.

Take `COc1ccc(Oc2ccc(C(F)F)cn2)cc1NC(=O)C1CNC(=O)N1C` (stereo not drawn) [Compound 212, N-(5-((5-(Difluoromethyl)pyridin-2-yl)oxy)-2-methoxyphenyl)-3-methyl-2-oxoimidazolidine-4-carboxamide]: the IC50 was 50 to 300 nM.

Consider `CN1C(=O)NCC1C(=O)Nc1cc(Oc2ccc(C(F)F)cc2)cc2c1OCC2` (stereo not drawn) [Compound 213, N-(5-(4-(Difluoromethyl)phenoxy)-2,3-dihydrobenzofuran-7-yl)-3-methyl-2-oxoimidazolidine-4-carboxamide], for which the half-inhibitory concentration (IC50) was less than 50 nM.

`CN1C(=O)CC[C@H]1C(=O)Nc1cc(Oc2ccc(C(F)F)cc2)cc2c1OCC2` [Compound 214, (S)—N-(5-(4-(Difluoromethyl)phenoxy)-2,3-dihydrobenzofuran-7-yl)-1-methyl-5-oxopyrrolidine-2-carboxamide]: the IC50 is less than 50 nM.

As for `CN1C(=O)CC[C@@H]1C(=O)Nc1cc(Oc2ccc(C(F)F)cc2)cc2c1OCC2` [Compound 215, (R)—N-(5-(4-(Difluoromethyl)phenoxy)-2,3-dihydrobenzofuran-7-yl)-1-methyl-5-oxopyrrolidine-2-carboxamide], the concentration for half-maximal inhibition (IC50) was less than 50 nM.

Turning to `CN1C(=O)NC[C@H]1C(=O)Nc1cc(Oc2ccc(C(F)(F)F)cn2)cc2ccoc12` [Compound 216, (S)-3-Methyl-2-oxo-N-(5-((5-(trifluoromethyl)pyridin-2-yl)oxy)benzofuran-7-yl)imidazolidine-4-carboxamide], the IC50 is less than 50 nM.

As to `CN1C(=O)NC[C@@H]1C(=O)Nc1cc(Oc2ccc(C(F)(F)F)cn2)cc2ccoc12` [Compound 217, (R)-3-Methyl-2-oxo-N-(5-((5-(trifluoromethyl)pyridin-2-yl)oxy)benzofuran-7-yl)imidazoledine-4-carboxamide], the 50% inhibitory concentration (IC50) was less than 50 nM.

In the case of `CN1C(=O)NC[C@H]1C(=O)Nc1cc(Oc2ccc(C(F)(F)F)cn2)cc2c1ncn2C` [Compound 218, (S)-3-Methyl-N-(1-methyl-6-((5-(trifluoromethyl)pyridin-2-yl)oxy)-1H-benzo-[d]imidazol-4-yl)-2-oxoimidazolidine-4-carboxamide], the half-inhibitory concentration (IC50) was in the range of 50 to 300 nM.

As to `COc1ccc(Oc2ccc(Cl)c(Cl)c2)cc1NC(=O)C1CCC(=O)N1C` (stereo not drawn) [Compound 222, N-(5-(3,4-Dichlorophenoxy)-2-methoxyphenyl)-1-methyl-5-oxopyrrolidine-2-carboxamide], the IC50 is less than 50 nM.

`COc1ccc(Oc2ccc(F)c(Cl)c2)cc1NC(=O)C1CCC(=O)N1C` (stereo not drawn) [Compound 223, N-(5-(3-Chloro-4-fluorophenoxy)-2-methoxyphenyl)-1-methyl-5-oxo-pyrrolidine-2-carboxamide]: the IC50 is less than 50 nM.

For the compound `CN1C(=O)CCC1C(=O)Nc1cc(Oc2ccc(F)c(F)c2)ccc1-c1nnco1` (stereo not drawn) [Compound 224, N-(5-(3,4-Difluorophenoxy)-2-(1,3,4-oxadiazol-2-yl)phenyl)-1-methyl-5-oxopyrrolidine-2-carboxamide], the IC50 fell in the range of 301 to 2000 nM.

For the compound `CN1C(=O)CCC1C(=O)Nc1cc(Oc2ccc(C(F)(F)F)cc2)cc2cn[nH]c12` (stereo not drawn) [Compound 225, 1-Methyl-5-oxo-N-(5-(4-(trifluoromethyl)phenoxy)-1H-indazol-7-yl)-pyrrolidine-2-carboxamide], the 50% inhibitory concentration (IC50) lay within 301 to 2000 nM.

On to `COc1ccc(Oc2ccc(C(F)(F)F)cc2)cc1NC(=O)[C@@H]1CN(C)C(=O)N1C` [Compound 226, (S)—N-(2-Methoxy-5-(4-(trifluoromethyl)phenoxy)phenyl)-1,3-dimethyl-2-oxoimidazolidine-4-carboxamide], for which the IC50 was less than 50 nM.

In the case of `COc1ccc(Oc2ccc(C(F)(F)F)cc2)cc1NC(=O)[C@H]1CN(C)C(=O)N1C` [Compound 227, (R)—N-(2-Methoxy-5-(4-(trifluoromethyl)phenoxy)phenyl)-1,3-dimethyl-2-oxoimidazolidine-4-carboxamide], the IC50 was less than 50 nM.

For the compound `COc1ccc(Oc2ccc(C(F)(F)F)cc2)cc1NC(=O)C1CN(C)C(=O)C1O` (stereo not drawn) [Compound 228, 4-Hydroxy-N-(2-methoxy-5-(4-(trifluoromethyl)phenoxy)phenyl)-1-methyl-5-oxopyrrolidine-3-carboxamide], the IC50 is 301 to 2000 nM.

Take `COc1ccc(Oc2ccc(C(F)(F)F)cc2)cc1NC(=O)C1CCC(=O)N1C(=O)C1CCC(=O)N1` (stereo not drawn) [Compound 229, N-(2-Methoxy-5-(4-(trifluoromethyl)phenoxy)phenyl)-5-oxo-1-(5-oxopyrrolidine-2-carbonyl)pyrrolidine-2-carboxamide]: the half-maximal inhibitory concentration (IC50) is less than 50 nM.

Take `COc1ccc(Oc2ccc(C(F)(F)F)cc2)cc1NC(=O)C1CCC(=O)N1C(=O)C1CCC(=O)N1C` (stereo not drawn) [Compound 230, N-(2-Methoxy-5-(4-(trifluoromethyl)phenoxy)phenyl)-1-(1-methyl-5-oxo-pyrrolidine-2-carbonyl)-5-oxopyrrolidine-2-carboxamide]: the half-inhibitory concentration (IC50) is less than 50 nM.

In the case of `COc1ccc(Oc2ccc(C(F)(F)F)cc2)cc1NC(=O)C1CCC(=O)N1C(=O)C1CC(=O)N1` (stereo not drawn) [Compound 231, N-(2-Methoxy-5-(4-(trifluoromethyl)phenoxy)phenyl)-5-oxo-1-(4-oxoazetidine-2-carbonyl)pyrrolidine-2-carboxamide], the IC50 was less than 50 nM.

On to `COc1ccc(Oc2ccc(F)c(F)c2)cc1NC(=O)C1CCC(=O)N1C(=O)C1CC(=O)N1` (stereo not drawn) [Compound 232, N-(5-(3,4-difluorophenoxy)-2-methoxyphenyl)-5-oxo-1-(4-oxoazetidine-2-carbonyl)pyrrolidine-2-carboxamide], for which the IC50 lay within 50 to 300 nM.

Regarding `CN1C(=O)CCC1C(=O)Nc1cc(Oc2cccc(C(F)(F)F)c2)cc2c1OCCO2` (stereo not drawn) [Compound 233, 1-Methyl-5-oxo-N-(7-(3-(trifluoromethyl)phenoxy)-2,3-dihydrobenzo[b][1,4]dioxin-5-yl)pyrrolidine-2-carboxamide], the IC50 was in the range of 50 to 300 nM.

As for `Cc1c(Oc2cccc(C(F)(F)F)c2)cc(NC(=O)C2CCC(=O)N2C)c2c1OCCO2` (stereo not drawn) [Compound 236, 1-Methyl-N-(8-methyl-7-(3-(trifluoromethyl)phenoxy)-2,3-dihydrobenzo[b]-[1,4]dioxin-5-yl)-5-oxopyrrolidine-2-carboxamide], the 50% inhibitory concentration (IC50) lay in the range of 301 to 2000 nM.

`CN1C(=O)CCC1C(=O)Nc1cc(Oc2ccc(C(F)(F)F)cc2)cc2c1OCC2` (stereo not drawn) [Compound 237, 1-Methyl-5-oxo-N-(5-(4-(trifluoromethyl)phenoxy)-2,3-dihydrobenzofuran-7-yl)pyrrolidine-2-carboxamide]: the IC50 was less than 50 nM.

As to `CN1C(=O)CCC1C(=O)Nc1cc(OCc2cccc(C(F)(F)F)c2)cc2c1OCC2` (stereo not drawn) [Compound 238, 1-Methyl-5-oxo-N-(5-((3-(trifluoromethyl)benzyl)oxy)-2,3-dihydrobenzofuran-7-yl)pyrrolidine-2-carboxamide], the IC50 was 50 to 300 nM.

Consider `CN1C(=O)CCC1C(=O)Nc1cc(Oc2ccc(F)c(F)c2)cc2c1OCC2` (stereo not drawn) [Compound 239, N-(5-(3,4-Difluorophenoxy)-2,3-dihydrobenzofuran-7-yl)-1-methyl-5-oxopyrro-lidine-2-carboxamide], for which the IC50 is less than 50 nM.

In the case of `CN1C(=O)CCC1C(=O)Nc1cc(Oc2ccc(F)c(F)c2)cc2c1OCCO2` (stereo not drawn) [Compound 240, N-(7-(3,4-Difluorophenoxy)-2,3-dihydrobenzo[b][1,4]dioxin-5-yl)-1-methyl-5-oxopyrrolidine-2-carboxamide], the IC50 is less than 50 nM.

For `CN1C(=O)CCC1C(=O)Nc1cc(Oc2ccc(F)cc2)cc2c1OCCO2` (stereo not drawn) [Compound 241, N-(7-(4-Fluorophenoxy)-2,3-dihydrobenzo[b][1,4]dioxin-5-yl)-1-methyl-5-oxo-pyrrolidine-2-carboxamide], the IC50 is 50 to 300 nM.

As for `CN1C(=O)CCC1C(=O)Nc1cc(COc2ccc(F)c(F)c2)cc2c1OCC2` (stereo not drawn) [Compound 242, N-(5-((3,4-Difluorophenoxy)methyl)-2,3-dihydrobenzofuran-7-yl)-1-methyl-5-oxopyrrolidine-2-carboxamide], the half-inhibitory concentration (IC50) was 50 to 300 nM.

As for `CN1C(=O)CCC1C(=O)Nc1cc(COc2ccc(F)c(F)c2)cc2c1CCO2` (stereo not drawn) [Compound 243, N-(6-((3,4-Difluorophenoxy)methyl)-2,3-dihydrobenzofuran-4-yl)-1-methyl-5-oxopyrrolidine-2-carboxamide], the IC50 was in the range of 301 to 2000 nM.

With `CN1C(=O)CCC1C(=O)Nc1cc(Oc2ccc(C(F)(F)F)cn2)cc2c1ncn2C` (stereo not drawn) [Compound 244, 1-Methyl-N-(1-methyl-6-((5-(trifluoromethyl)pyridin-2-yl)oxy)-1H-benzo-[d]imidazol-4-yl)-5-oxopyrrolidine-2-carboxamide], the IC50 lay in the range of 50 to 300 nM.

Take `COc1ccc(CNc2cccc(F)c2)cc1NC(=O)C1CCC(=O)N1` (stereo not drawn) [Compound 246, N-(5-(((3-Fluorophenyl)amino)methyl)-2-methoxyphenyl)-5-oxopyrrolidine-2-carboxamide]: the half-inhibitory concentration (IC50) is 301 to 2000 nM.

For `COc1ccc(OC2CCC(F)(F)CC2)cc1NC(=O)C1CCC(=O)N1C` (stereo not drawn) [Compound 247, N-(5-((4,4-Difluorocyclohexyl)oxy)-2-methoxyphenyl)-1-methyl-5-oxopyrrolidine-2-carboxamide], the 50% inhibitory concentration (IC50) lay in the range of 50 to 300 nM.

One may read the IC50 as the concentration that gives 50% inhibition.
